According to patent US20100227921A1, “AMINO ACID AND PEPTIDE CARBAMATE PRODRUGS OF […] USES THEREOF” (SHIRE LLC, priority 2009, published 2010):
Values joined by “and” are separate entries in the source; they are usually repeats but may differ in a detail not shown here. Identical values can stand only once. Like-named read-outs stand apart in the source and are kept apart here. Marks after values point to notes of the source that are not given here.

What was measured:
[1] = system: guinea pig small intestine myenteric plexus longitudinal muscle; assay: Electrical field stimulation response of isolated guinea pig small intestine smooth muscle (ex vivo); details: Cavia porcellus; isolated guinea pig ileum, EFS 14 Hz, non-cumulative 10 nM-30 μM; read-out: approximate EC50, effect on electrical field stimulation response
Procedure: Strips of guinea pig small intestine myenteric plexus longitudinal muscle and mounted between platinum ring electrodes. The tissue was stretched to a steady tension of about 1 g and changes in force production were recorded using sensitive transducers.
The optimal voltage for stimulation was determined while the tissue was paced with electrical field stimulation (EFS) at 14 Hz, with a pulse width of 0.5 msec (Trains of pulses for 20 seconds, every 50 seconds).
EFS at optimal voltage continued throughout the protocol (stable responses=“baseline measurement of EFS”).
The 3 test conditions employed were as follows:
(1) Vehicle (deionised water, added at equivalent volume additions to test articles), (2) Tapentadol at 6 concentrations (10 nM, 100 nM, 1 μM, 3 μM, 10 μM & 30 μM) (3) Tapentadol valine carbamate at 6 concentrations (10 nM, 100 nM, 1 μM, 3 μM, 10 μM, & 30 μM).
Following 10 minutes of baseline EFS, first addition of test article or vehicle (deionized water) was performed.
Test concentrations were added in a non-cumulative manner with PSS washes between each addition. Next, TTX (Na+ channel blocker) was added to confirm EFS responses were elicited via nerve stimulation. EFS was then stopped.

[2] = Comparative bioavailability after oral or intravenous administration to monkeys (plasma LC-MS-MS); type: in vivo, cynomolgus monkey; details: monkey, below the quantitative limit
Procedure: Test substances i.e., tapentadol and tapentadol valine carbamate were administered (either intravenously or orally) to a group of five male cynomolgus monkeys in a three way crossover design. The oral doses were given at 1 mg tapentadol base equivalents/kg while the intravenous dose was 0.5 mg/kg
Blood samples were taken at various times after administration and submitted to analysis for the parent drug and tapentadol valine carbamate using a validated LC-MS-MS assay. Pharmacokinetic parameters derived from the plasma analytical data were determined using Win Nonlin.

[3] = Comparative in vivo bioavailability study in the dog (oral gavage, plasma LC-MS-MS); details: for half-life / AUC / AUC(0-t) / Cmax / Tmax: Beagle, plasma, po
Procedure: Test substances (i.e., tapentadol (1 mg/kg) and tapentadol valine carbamate (0.8 mg tapentadol base equivalents/kg)) were administered by oral gavage to a group of five dogs (dog nos. 1, 2, 3, 4 and 5) in a two-way crossover design. The characteristics of the test animals are set out in Table 3.
(§1) Blood samples were taken at various times after administration and submitted to analysis for the parent drug and pro-drug using a validated LC-MS-MS assay. Pharmacokinetic parameters derived from the plasma analytical data were determined using Win Nonlin.

[4] = Comparative bioavailability after oral administration to rats (plasma LC-MS-MS); type: in vivo; details: male rat, oral tapentadol 10 mg free base equiv/kg, individual animals 1-5 (5 outlier)
Procedure: Test substances, i.e., tapentadol or tapentadol valine carbamate were administered by oral gavage to groups of male Sprague Dawley rats.
as §1

[5] = oral tapentadol HCl 1 mg tapentadol base equiv/kg, individual dogs 1-5
[6] = oral tapentadol valine carbamate 0.8 mg tapentadol base equiv/kg, individual dogs 1-5

SMILES: CC[C@@H](c1cccc(O)c1)[C@@H](C)CN(C)C (racemic) [Tapentadol, (−)-(1R,2R)-3-(3-dimethyl-amino-1-ethyl-2-methyl-propyl)-phenol]
- EC50 [1]: ~0.2 µM
- Plasma levels of tapentadol ([2]; after giving the drug (tapentadol)): < 0.5 ng/mL
- Plasma levels of tapentadol ([2]; after giving the prodrug (tapentadol valine carbamate)): < 0.5 ng/mL
- half-life ([3]; 0.8 mg/kg, oral tapentadol valine carbamate 0.8 mg tapentadol base equiv/kg, calculated as ln2/mean k, read-out: t½ of tapentadol (converted)): 48 min
- AUC ([3]; 0.8 mg/kg, oral tapentadol valine carbamate 0.8 mg tapentadol base equiv/kg, individual dogs 1-5, read-out: AUC of tapentadol): 31.4 ng·h/mL
- AUC(0-t) ([3]; 0.8 mg/kg, oral tapentadol valine carbamate 0.8 mg tapentadol base equiv/kg, individual dogs 1-5, read-out: AUCt of tapentadol): 29.5 ng·h/mL
- Cmax ([3]; 0.8 mg/kg, oral tapentadol valine carbamate 0.8 mg tapentadol base equiv/kg, individual dogs 1-5, read-out: Cmax of tapentadol): 13.7 ng/mL
- Tmax ([3]; 0.8 mg/kg, oral tapentadol valine carbamate 0.8 mg tapentadol base equiv/kg, individual dogs 1-5, read-out: Tmax of tapentadol): 60 min
- half-life ([3]; 0.8 mg/kg, oral tapentadol valine carbamate 0.8 mg tapentadol base equiv/kg, individual dogs 1-5, read-out: t½ of tapentadol (converted)): 48 min
- AUC ([3]; 0.8 mg/kg, oral tapentadol valine carbamate 0.8 mg tapentadol base equiv/kg, mean of 5 dogs, read-out: AUC of tapentadol): 34.2 ng·h/mL
- AUC(0-t) ([3]; 0.8 mg/kg, oral tapentadol valine carbamate 0.8 mg tapentadol base equiv/kg, mean of 5 dogs, read-out: AUCt of tapentadol): 32 ng·h/mL
- Cmax ([3]; 0.8 mg/kg, oral tapentadol valine carbamate 0.8 mg tapentadol base equiv/kg, mean of 5 dogs, read-out: Cmax of tapentadol): 14.5 ng/mL
- Tmax ([3]; 0.8 mg/kg, oral tapentadol valine carbamate 0.8 mg tapentadol base equiv/kg, median of 5 dogs, read-out: Tmax of tapentadol): 60 min
- half-life ([3]; 1 mg/kg, oral tapentadol HCl 1 mg tapentadol base equiv/kg, calculated as ln2/mean k, read-out: t½ of tapentadol (converted)): 72 min
- Tmax ([3]; 1 mg/kg, oral tapentadol HCl 1 mg tapentadol base equiv/kg, individual dogs 1-5, read-out: Tmax of tapentadol): 30 min
- AUC ([3]; 1 mg/kg, oral tapentadol HCl 1 mg tapentadol base equiv/kg, mean of 5 dogs, read-out: AUC of tapentadol): 2.78 ng·h/mL
- AUC(0-t) ([3]; 1 mg/kg, oral tapentadol HCl 1 mg tapentadol base equiv/kg, mean of 5 dogs, read-out: AUCt of tapentadol): 2.56 ng·h/mL
- Cmax ([3]; 1 mg/kg, oral tapentadol HCl 1 mg tapentadol base equiv/kg, mean of 5 dogs, read-out: Cmax of tapentadol): 1.45 ng/mL
- Tmax ([3]; 1 mg/kg, oral tapentadol HCl 1 mg tapentadol base equiv/kg, median of 5 dogs, read-out: Tmax of tapentadol): 30 min
- AUC of tapentadol [3, 5]: 1.96 ng·h/mL and 2.02 ng·h/mL and 3.38 ng·h/mL and 4.53 ng·h/mL and 1.99 ng·h/mL
- AUCt of tapentadol [3, 5]: 1.84 ng·h/mL and 1.88 ng·h/mL and 2.68 ng·h/mL and 4.48 ng·h/mL and 1.92 ng·h/mL
- Cmax of tapentadol [3, 5]: 0.75 ng/mL and 1.77 ng/mL and 1.27 ng/mL and 2.39 ng/mL and 1.08 ng/mL
- T>50%Cmax of tapentadol [3, 5]: 1.5 h (2×) and 0 h and 0.5 h (2×)
- T>50%Cmax of tapentadol ([3]; oral tapentadol HCl 1 mg tapentadol base equiv/kg, median of 5 dogs): 0.5^a h
- AUC of tapentadol [3, 6]: 25.5 ng·h/mL and 39.9 ng·h/mL and 29.1 ng·h/mL and 45.0 ng·h/mL
- AUCt of tapentadol [3, 6]: 22.8 ng·h/mL and 36.4 ng·h/mL and 28.3 ng·h/mL and 43.2 ng·h/mL
- Cmax of tapentadol [3, 6]: 11.1 ng/mL and 17.0 ng/mL and 11.7 ng/mL and 19.3 ng/mL
- T>50%Cmax of tapentadol [3, 6]: 1 h (3×) and 1.5 h (2×)
- Tmax of tapentadol [3, 6]: 120 min
- t½ of tapentadol [3, 6]: 66 min and 54 min and 60 min and 36 min
- T>50%Cmax of tapentadol ([3]; oral tapentadol valine carbamate 0.8 mg tapentadol base equiv/kg, median of 5 dogs): 1^a h
- Plasma concentration of tapentadol ([4]; 0.5 h): 003.53 ng/mL and 001.60 ng/mL and 2.33 ng/mL and 003.48 ng/mL and 70.5 ng/mL
- Plasma concentration of tapentadol ([4]; 1 h): 3.98 ng/mL and 2.32 ng/mL and 5.21 ng/mL and 5.87 ng/mL and 52.6 ng/mL
- Plasma concentration of tapentadol ([4]; 2 h): 2.70 ng/mL and 2.28 ng/mL and 1.72 ng/mL and 3.06 ng/mL and 22.7 ng/mL
- Plasma concentration of tapentadol ([4]; 3 h): 1.75 ng/mL and 1.65 ng/mL and 1.68 ng/mL and 2.20 ng/mL and 10.9 ng/mL
